Laboratory results taken from the METLIN SMRT retention time set (Domingo-Almenara et al. 2019).

Test: gradient 5% acetonitrile 3 min, to 50% in 2 min, to 85% in 15 min, held 3 min, 100 µL/min
Conditions: column: Zorbax Extend-C18 2.1 x 50 mm; eluents: water / acetonitrile, 0.1% formic acid
Method in brief: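 The system's dead and dwell volumes were 40 μL and 900 μL, with a Zorbax Extend-C18 column (2.1 × 50 mm, 1.8 μm) run at 100 μL/min in water and acetonitrile containing 0.1% formic acid each. Pure standards were analyzed in mixtures of ~100 molecules by HPLC–quadrupole time-of-flight mass spectrometry in positive and negative ionization mode. Retention time was assigned from computationally picked, manually inspected adduct peaks.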

Work on `CCC(C)NC(=O)NC1CCN(C2=NS(=O)(=O)C(c3ccc(Cl)cc3)=C2C)CC1` (centres undefined) yielded an RP-LC retention time of 883 s.

In the case of `CC(C)C(=O)Nc1ccc(-n2cnc(C(=O)N3CCCCCC3)c2)nc1`, the RP-LC retention time is reported as 710 s.

`CCOc1cc(=O)n2c(c1C(=O)NCC1CCCO1)CCCCC2` (centres undefined) gave an RP-LC retention time of 610 s.

`Cc1oc(C2CCN(C(=O)C3CCCN(S(=O)(=O)N4CCCC4)C3)CC2)nc1C(=O)N1CCCC1` (centres undefined) gave an RP-LC retention time of 737 s.

Work on `CN(C)S(=O)(=O)N1CC[C@@H]2C(=O)NCCCCCCN(Cc3ccncc3)[C@@H]2C1` yielded an RP-LC retention time of 603 s.

`Cc1cc(C)n(-c2nccnc2SCC(=O)Nc2cccc(Cl)c2C)n1` showed an RP-LC retention time of 871 s.

Compound `O=C(NCc1ccc2c(c1)OCO2)C1COC2(CCCCC2)N1C(=O)c1cccc(F)c1` (centres undefined) has an RP-LC retention time of 845 s.

With `Cn1ncc2c(N3CCSCC3)nc(C(=O)NCc3ccncc3)nc21` the RP-LC retention time was 566 s.

`Cc1nn(C)c(C)c1CCN(C)C(=O)C1Cn2cccc2C(=O)N1CC(C)C` (centres undefined) showed an RP-LC retention time of 642 s.

For `O=C(Cc1ccccc1Cl)N1CCc2nc[nH]c2C1`, the RP-LC retention time was 584 s.

Compound `CCc1cc(C(=O)Nc2cc(C)cc(C)c2)nc2ccnn12` has an RP-LC retention time of 1140 s.

With `Cc1sc(NC(=O)c2cccnc2)nc1-c1ccc2c(c1)NC(=O)C(C)O2` (centres undefined) the RP-LC retention time was 718 s.

For `O=C(c1ccc(OCC2CCCN2C(=O)CC2CCCCC2)cc1)N1CCOCC1` (centres undefined), the RP-LC retention time was 829 s.

`COc1ccc(NC(=O)N2CCC3(CC2)N=C(c2ccccc2)C(=O)N3)c(OC)c1` showed an RP-LC retention time of 764 s.

For `O=c1c2ccccc2nc2n1CCCC2`, the RP-LC retention time was 653 s.

Compound `Cn1cccc1C(=O)N1CCC2(CC1)NC(=O)N(Cc1ccc(Cl)cc1)C2=O` has an RP-LC retention time of 817 s.

Compound `COc1ccc(-c2noc(C3CC(=O)N(c4ccc(C)c(F)c4)C3)n2)c(OC)c1` (centres undefined) has an RP-LC retention time of 948 s.

`O=C(Nc1ccc(Nc2cc(-n3ccnc3)ncn2)cc1)c1c[nH]c2ccccc12` gave an RP-LC retention time of 562 s.

In the case of `CCOc1ccc(Nc2c(C(=O)N3CCCCC3C)cnc3nc(C)ccc23)cc1` (centres undefined), the RP-LC retention time is reported as 668 s.

For `Cc1noc(C2(NC(=O)C3CCCCC3)CCCCC2)n1`, the RP-LC retention time was 873 s.

For `CC(C)Oc1ccc(-c2noc(Cn3c(=O)n(-c4ccccc4F)c(=O)c4sccc43)n2)cc1`, the RP-LC retention time was 1090 s.

`Cc1ccc(CNC(=O)C2CCCN(c3ncnc4c3nc3n4CCCCC3)C2)cc1` (centres undefined) gave an RP-LC retention time of 793 s.

Work on `O=C(NCCc1csc(-c2ccccc2)n1)C1CCN(S(=O)(=O)c2cccs2)CC1` yielded an RP-LC retention time of 776 s.

Work on `O=C(NCc1cccs1)c1nnc(-c2ccc(S(=O)(=O)N3CCCCC3)cc2)o1` yielded an RP-LC retention time of 939 s.

With `CCCc1ccc(S(=O)(=O)N2CCC(C)(C(=O)NCc3ccc(F)cc3)CC2)cc1` the RP-LC retention time was 1070 s.

With `COC(=O)C1CCN(C(=O)c2cccnc2-c2nc3ccccc3s2)CC1` the RP-LC retention time was 747 s.

`CCc1nc2c(NC(=O)c3sccc3C)cccn2n1` gave an RP-LC retention time of 831 s.

For `CCOc1ccccc1NC(=O)CN1CCC(c2nnc(-c3ccco3)s2)CC1`, the RP-LC retention time was 594 s.

`CCOc1cc(=O)n2c(c1C(=O)Nc1ccc(Cl)cc1)CCCC2` gave an RP-LC retention time of 769 s.

Work on `CC(C)Cn1nc2n(c1=O)CCN(S(=O)(=O)c1ccc(C(C)(C)C)cc1)CC2` yielded an RP-LC retention time of 631 s.

Work on `O=C(Cn1c(=O)oc2ccccc21)N1CC(n2cc(COCc3ccccc3)nn2)C1` yielded an RP-LC retention time of 773 s.

`Cc1csc(-c2cc(S(=O)(=O)NCc3ccc(Br)cc3)c(C)s2)n1` gave an RP-LC retention time of 1050 s.

`O=C(NCCc1csc(C2CCN(C(=O)C3CC3)CC2)n1)C1CC1` showed an RP-LC retention time of 640 s.

Compound `Cc1nnc(N2CCCC(C(=O)N3CCCCC3)C2)c2nn(-c3ccccc3)c(C)c12` (centres undefined) has an RP-LC retention time of 686 s.

Work on `Cc1cccc(N2CCN(Cc3nc(-c4ccc(N5CCSCC5)nc4)no3)CC2)c1` yielded an RP-LC retention time of 1000 s.

Compound `CNC(=O)c1sc(-c2ccccc2)nc1C` has an RP-LC retention time of 726 s.

`CC(=O)N1CCc2cc(N3CC(C(=O)Nc4ccc(C)cc4F)CC3=O)ccc21` (centres undefined) showed an RP-LC retention time of 717 s.

With `N#Cc1cccc(NC(=O)C(=O)c2ccc[nH]2)c1` the RP-LC retention time was 788 s.

In the case of `COc1cccc(NC(=O)CCC2CCN(c3cc(NC4CC4)ncn3)CC2)c1`, the RP-LC retention time is reported as 674 s.

Work on `COc1ccc(N2CCN(c3cc(SCC(=O)Nc4cc(C)cc(C)c4)ncn3)CC2)cc1` yielded an RP-LC retention time of 1060 s.

Work on `Cc1ccc2c(c1)N(S(C)(=O)=O)CCC(C(=O)NCc1ccccc1C)O2` (centres undefined) yielded an RP-LC retention time of 900 s.

`Cc1cccnc1NC(=O)C1CCN(S(=O)(=O)c2ccc3c(c2)sc(=O)n3C(C)C)CC1` showed an RP-LC retention time of 844 s.

In the case of `CCn1c(=O)c(N2CCN(C(=O)Nc3ccccc3Br)CC2)nc2ccccc21`, the RP-LC retention time is reported as 1010 s.

For `NS(=O)(=O)c1ccc(CCNC(=O)Cc2cc(-c3cc4ccccc4o3)on2)cc1`, the RP-LC retention time was 736 s.

Compound `COC(=O)c1nnn(CC(=O)NCc2ccc3c(c2)OCO3)c1C(=O)OC` has an RP-LC retention time of 657 s.

For `CCOC(=O)COC(=O)c1cn(-c2ccc(C)cc2)c(=O)c2ccccc12`, the RP-LC retention time was 718 s.

With `O=C1C(N2CCN(S(=O)(=O)c3cccs3)CC2)CCN1Cc1cccnc1` (centres undefined) the RP-LC retention time was 536 s.

With `Cc1cc(C)n2nc(SCC(=O)Nc3cccc(C(F)(F)F)c3)nc2n1` the RP-LC retention time was 827 s.

`Cc1ccc(-c2csc(NC(=O)Cc3csc(COc4ccc(Cl)c(C)c4)n3)n2)cc1` gave an RP-LC retention time of 1310 s.

`CCN1CCC2(CC1)OC(=O)C(C)=C2C(=O)NCCc1ccccc1` showed an RP-LC retention time of 617 s.

`Cc1ccc(CNC(=O)NCC2Cn3cccc3C(=O)N2C)cc1` (centres undefined) showed an RP-LC retention time of 680 s.

For `COc1cc(C)c(S(=O)(=O)Nc2ccc(-c3cn4ccc(C)nc4n3)cc2)cc1C`, the RP-LC retention time was 683 s.

Compound `COc1ccc(NC(=O)c2cc3c(=O)oc4ccccc4c3n2C)cc1Cl` has an RP-LC retention time of 1020 s.

In the case of `Cc1noc(-c2ccnc(-n3cnc(C(=O)N(C)C4CCCCC4)c3)c2)n1`, the RP-LC retention time is reported as 737 s.

Work on `CCn1ccc(C(=O)N2CCC(CC(=O)NC3CC3)C2)n1` (centres undefined) yielded an RP-LC retention time of 630 s.

`Cc1ccc(Nc2ccc(NC(=O)c3ccccc3F)cc2)nn1` gave an RP-LC retention time of 568 s.

For `CCc1csc(-c2ccc(N3CCN(C(=O)C4COc5ccccc5O4)CC3)nc2)n1` (centres undefined), the RP-LC retention time was 1030 s.

In the case of `Cc1cc2nn(CC(=O)Nc3ccc(F)c(Cl)c3)c(=O)n2c(N2CCCC2)n1`, the RP-LC retention time is reported as 836 s.

In the case of `CCc1nc(NC(=O)Cn2nc3c(cc2=O)CCCCC3)sc1C`, the RP-LC retention time is reported as 828 s.

In the case of `O=C(CN1C(=O)c2ccccc2C1=O)Nc1nnc(-c2ccc3c(c2)OCCO3)o1`, the RP-LC retention time is reported as 678 s.

`CN1Cc2ccccc2-n2ccnc2C12CCN(C(=O)c1ccc(F)c(F)c1)CC2` showed an RP-LC retention time of 619 s.

With `CCC(C)NC(=O)N(C)CCc1noc(COc2ccc(Cl)cc2)n1` (centres undefined) the RP-LC retention time was 869 s.

In the case of `Cc1cccc(N2CCN(C(=O)C3CCN(c4cnc5nccnc5c4)CC3)CC2)c1C`, the RP-LC retention time is reported as 881 s.

With `O=c1ccc(N2CCCN(S(=O)(=O)c3ccc(F)cc3)CC2)nn1-c1ccc(Cl)cc1` the RP-LC retention time was 926 s.

For `CCCc1nc(-c2cc3ccc(C)cc3nc2NC2CCCC2)no1`, the RP-LC retention time was 968 s.

Work on `O=C(CCCS(=O)(=O)c1ccccc1)Nc1nnc(-c2ccsc2)o1` yielded an RP-LC retention time of 674 s.

`Cc1c(C(=O)NC(C)C)cnn1-c1cc(-c2nc(C3CC3)no2)ccn1` gave an RP-LC retention time of 865 s.

Work on `CC(NC(=O)c1cc(F)cc(F)c1)C(=O)Nc1nc2ccccc2[nH]1` (centres undefined) yielded an RP-LC retention time of 655 s.

Compound `O=C(CC1CCN(C(=O)c2ccc3nc(-c4ccccc4)oc3c2)CC1)NCc1ccco1` has an RP-LC retention time of 789 s.

With `Cc1nn(-c2ccccc2)c2c1N(CCCC(=O)N1CCOCC1)C(=O)CS2` the RP-LC retention time was 694 s.

In the case of `Cc1ccc(-c2nc(-c3ccc(S(=O)(=O)N4CCCC4)cc3)no2)cc1F`, the RP-LC retention time is reported as 1260 s.

Compound `COc1ccc(-c2cc(C(=O)N3CCN(S(=O)(=O)c4ccc(OC)c(OC)c4)CC3)[nH]n2)cc1` has an RP-LC retention time of 795 s.

For `Cc1ccccc1CNC(=O)Cn1c(C)cc(-c2nnc(C3CCC3)o2)c1C`, the RP-LC retention time was 902 s.

For `CC1=NS(=O)(=O)N(C)C=C1C(=O)OCc1ccc(C)cc1`, the RP-LC retention time was 975 s.

`CCOc1ccc(NC(=O)COc2cc(C)nc(N3CCN(c4ccccc4)CC3)n2)cc1` showed an RP-LC retention time of 839 s.

For `O=C(c1ccc2c(c1)CCN2C(=O)C1CCC1)N1CCCC1`, the RP-LC retention time was 589 s.

Work on `Cn1nc(N2CCC(NC(=O)Cc3ccncc3)C2)ccc1=O` (centres undefined) yielded an RP-LC retention time of 549 s.

`CN1CCN(C(=O)C2(C)CC(c3ccccc3)=NO2)CC1` (centres undefined) gave an RP-LC retention time of 608 s.

`CCCn1c(=O)c(C)nc2cc(-c3noc(C4CC(=O)N(c5cccc(Cl)c5)C4)n3)ccc21` (centres undefined) showed an RP-LC retention time of 1050 s.

With `CCN1CCN(c2c(S(=O)(=O)c3ccc(Cl)cc3)cnc3cc(OC)c(OC)cc23)CC1` the RP-LC retention time was 634 s.

Compound `O=C(Nc1cccc(C(=O)NCCC2=CCCCC2)c1)C1=CSCCO1` has an RP-LC retention time of 925 s.

For `O=C(c1ccc(Cl)s1)N1CC(c2nc(-c3cccc(C(F)(F)F)c3)no2)C1`, the RP-LC retention time was 1090 s.

In the case of `CN1C(=O)Cc2cc(C(=O)NCc3ccc(F)c(Cl)c3)ccc21`, the RP-LC retention time is reported as 766 s.

Compound `CC(C)CCNC(=O)C1(C)CN(S(=O)(=O)c2ccccc2)CC(=O)N1c1cccc(Cl)c1` (centres undefined) has an RP-LC retention time of 1020 s.

For `Cc1ccc(-c2noc(Cn3ncn4nc(-c5ccccc5Cl)cc4c3=O)n2)cc1`, the RP-LC retention time was 1200 s.

`O=C1NCCCn2cc(S(=O)(=O)N3CCN(c4ccccc4F)CC3)cc21` gave an RP-LC retention time of 742 s.

`Cc1ccc(-n2nc(N3CCCC(C(=O)NCCC4=CCCCC4)C3)ccc2=O)cc1Cl` (centres undefined) gave an RP-LC retention time of 1060 s.

`O=S1(=O)C[C@H](N2CCN(c3ncccn3)CC2)[C@@H](S(=O)(=O)c2cccs2)C1` gave an RP-LC retention time of 719 s.

In the case of `COc1ccc(S(=O)(=O)NC2CCN(C(=O)Cc3c[nH]c4ccccc34)CC2)cc1`, the RP-LC retention time is reported as 766 s.
